Tests used:
human p85 SH2 domain = biological target: T1, human p85 SH2 domain (Homo sapiens, UniProt P27986); test: ELISA-based SH2 domain / pY peptide binding assay, p85 SH2 domain
T1 construct: made in house; host or cells: E. coli (pGEX-3X)
Procedure: (§1) The inhibitory activity of compounds at the different human SH2 domains was determined in vitro using SH2 domains expressed as fusion proteins in E. coli. The SH2 domains used herein were the human forms of the src SH2 domain, Grb2 SH2 domain, lck SH2 domain, fyn SH2 domain, SH-PTP2 SH2 domain, p85 SH2 domain and hcp SH2 domain.
(§2) Fusion proteins having the structure GST-X-SH2 were prepared as described in the GST gene fusion kit system available from Pharmacia (New Jersey). GST is the tagging sequence glutathione s-transferase epitope (SEQ ID NO: 8) for fyn, Grb2 and SH-PTP2 and is the tagging sequence glutathione s-transferase epitope (SEQ ID NO: 9) for p85. SH2 refers to the SH2 domains of fyn, Grb2, p85 and SH-PTP2 which were expressed and purified using glutathione Sepharose 4B (Pharmacia) according to "Current Protocols in Molecular Biology", ed. FM Ausubel et al., pub. John Wiley and Sons, Inc., (1995), p 16.7.1. X is an appropriate linker, preferably of 6 to 21 base pairs, used to keep the SH2 construct in frame and complement cloning. As such, the sequence of X is not critical. One skilled in the art can readily construct the appropriate linker. The DNA sequence encoding each GST-X-SH2 fusion protein was designed such that the indicated restriction sites (BamH1 and EcoRI) flank the SH2 region. […]

human Grb2 SH2 domain = biological target: T2, human Grb2 SH2 domain (Homo sapiens, UniProt P62993); test: ELISA-based SH2 domain / pY peptide binding assay, Grb2 SH2 domain
T2 construct: made in house; host or cells: E. coli (pGEX-2T)
T2 sequence (P62993 58-159): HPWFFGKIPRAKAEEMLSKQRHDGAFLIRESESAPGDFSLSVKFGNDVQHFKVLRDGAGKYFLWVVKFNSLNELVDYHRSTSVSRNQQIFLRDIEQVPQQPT
Procedure: as §1, §2

[1] = Ki calculated from IC50 with the expanded equation
[2] = inhibition of binding of 0.1 uM biotinylated pY peptide to SH2 domain fusion protein

T1 sequence (P27986 321-440): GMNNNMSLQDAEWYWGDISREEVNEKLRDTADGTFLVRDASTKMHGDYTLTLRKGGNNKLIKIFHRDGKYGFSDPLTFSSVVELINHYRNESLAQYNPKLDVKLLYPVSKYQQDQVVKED

Ki (human p85 SH2 domain; [1]): > 1000 µM
IC50 (human p85 SH2 domain; [2]): > 300 µM
Ki (human Grb2 SH2 domain; [1]): > 1000 µM
IC50 (human Grb2 SH2 domain; [2]): > 300 µM
SMILES: CCCCCCNC(=O)[C@H]1CC[C@H](CNC(=O)c2ccc(C(=O)c3ccc(C(=O)O)cc3)cc2)CC1 [Compound 6, 4-carboxy-benzophenone-4-carboxamido-trans-4-methyl-cyclohexyl-N-hexyl carboxamide]

Reference: patent publication EP0728482A2, “Use of hcp specific compounds to enhance erythropoiesis” (SMITHKLINE BEECHAM CORPORATION, priority 1995, dated 1996)
